Measurements taken from PMC11475369, “Exploring the Potential of Synthetic Cannabinoids: Modulation of Biological Activity of Normal and Cancerous Human Colon Epithelial Cells” (Cells, 2024).
≈ marks a conversion by molar mass, not a printed value.

Legend:
[1] = tested on: CCD 841 CoTr cells; assay: MTT assay, metabolic activity of CCD 841 CoTr cells; type: cell-based, human; conditions: for IC50: Homo sapiens, CCD-841, 24 h, read-out: IC50 Values (MTT method)
Method: (§1) The HT29 cell line (ATCC no. HTB-38) (human colon adenocarcinoma) was used in the present study. Cells were cultivated in RPMI 1640 culture medium with 10% fetal calf serum (FCS) (GibcoTM, Paisley, UK), supplemented with antibiotics (100 U/mL penicillin and 100 μg/mL streptomycin) (Sigma, St. Louis, MO, USA). The cell culture was performed in standard conditions, i.e., at 37 °C in a humidified atmosphere with 5% CO2. The CCD 841 CoTr cell line (ATCC no. CRL-1807) (human normal colon epithelium) was cultivated in RPMI 1640 +DMEM (1:1) medium (Sigma, St. Louis, MO, USA) with 10% FCS and the addition of antibiotics. The culture was carried out at 34 °C in a 5% CO2/95% air atmosphere.
After seeding (1 × 10^5 cells/mL) in a 96-well plate, the cells were incubated for 24 h. Thereafter, the tested compounds (100 μL) at a concentration range of 0–200 μg/mL in the culture medium were added to the wells (100 μL). The incubation lasted for 24 h. After that time, an MTT solution (5 mg/mL, 25 μL/well) was added to each well. The incubation was continued for another 3 h. After the incubation, 10% sodium dodecyl sulfate (SDS) in 0.01 M HCl (100 μL) was added in order to dissolve the purple formazan crystals. Solubilization was carried out overnight. Finally, spectrophotometric measurement was performed at 570 nm using an EL800 Universal Microplate Reader (BioTek Instruments, Winooski, VT, USA).

[2] = tested on: HT29 cells; assay: Neutral Red (NR) uptake assay, viability of HT29 cells; type: cell-based; conditions: Homo sapiens, HT-29; HT29 colon tumor cells, 24 h incubation
Method: as §1
(§2) After seeding (1 × 10^5 cells/mL) in a 96-well plate, the cells were incubated for 24 h. Thereafter, the tested compounds (100 μL) at a concentration range of 0–200 μg/mL in the culture medium were added to the wells (100 μL). The incubation lasted for 24 h. After that time, the culture medium was removed and a 0.4% Neutral Red solution in the culture medium was added to each well. The incubation was continued for another 3 h. After the incubation, the medium with the NR dye was discarded, and 4% paraformaldehyde in 1% CaCl2 was added for cell fixation (200 μL) and incubated for 3 min. Intracellular dye deposits were solubilized using 1% […] in a 50% ethanol solution (100 μL). The plates were then gently shaken (20 min.) at room temperature to dissolve and release the dye from the cells. Finally, spectrophotometric measurement was performed at 540 nm using an EL800 Universal Microplate Reader (BioTek Instruments, Winooski, VT, USA).

[3] = tested on: CCD 841 CoTr cells; assay: Neutral Red (NR) uptake assay, viability of CCD 841 CoTr cells; type: cell-based; conditions: Homo sapiens; CCD 841 CoTr colon normal cells, 24 h incubation
Method: as §1, §2

[4] = tested on: HT29 cells; assay: Flow cytometry annexin V-FITC/PI, cell death types in HT29 cells; type: cell-based, human; conditions: HT29, 25 μg/mL, 24 h; for viability at 25 µg/mL: Homo sapiens, HT-29, read-out: Percentage of viable cells
Method: In a further flow cytometric study measuring normal and tumor cell death types, the cells were exposed to the cannabinoids at a concentration of 25 μg/mL for 24 h.
The annexin V-fluorescein isothiocyanate (FITC)/propidium iodide (PI) apoptosis kit (BD Biosciences, BD Pharmingen™, San Jose, CA, USA) was used for the quantitative analysis of cannabinoid-induced cell death.
For the analyses, both adhered (after detaching the cells with 10 mM EDTA in PBS w/o Ca^2+ and Mg^2+ ions solution) and floating cells were collected after 24 h of incubation with the tested cannabinoids. After collection, the cells were gently centrifuged (1000 rpm/5 min.). Next, the supernatant was discarded, and the cell pellet was suspended in warm PBS w/o Ca^2+ and Mg^2+ ions and incubated for 5 min. at room temperature. The centrifugation procedure was repeated again and, following the manufacturer’s procedure, the cells were suspended in 100 μL of 1X Annexin V Binding Buffer with 5 μL of FITC Annexin V […] and 5 μL of propidium iodide (PI) (5 mM). The preparation was gently vortexed and incubated at room temperature for 15 min. in the dark. After that time, the cells were subjected to cytometric analysis. Before dosing the cells into the cytometer, 400 μL of 1X Binding Buffer was added. The cells were analyzed using a flow cytometer (BD FACSCalibur) with CellQuest Pro Version 6.0 software within 1 h after the staining was completed.

[5] = tested on: HT29 cells; assay: Flow cytometry (PI) cell cycle analysis of HT29 cells; type: cell-based, human; conditions: HT29, 25 μg/mL, 24 h
Method: (§3) In the flow cytometric study, we assessed the impact of the cannabinoids at a concentration of 25 μg/mL on the distribution of cell cycle phases in the normal and cancer cells after 24 h incubation. Both adhered, and non-adsorbed (floating) cells were used to perform the analyses. They were collected after 24 h of incubation with the tested cannabinoids and centrifuged (3000 rpm/5 min.). Next, the cell pellet was rinsed and suspended in PBS w/o Ca^2+ and Mg^2+ ions and centrifuged again (3000 rpm/5 min.). The cell pellet was suspended and fixed in 70% ethanol (1 mL). Untreated cells served as a control. The cells were stored at −20 °C for 1 week. After that time, in accordance with the manufacturer protocol, the cells were subjected to the PI staining procedure (PI/RNase Staining Buffer, BD PharmingenTM, BD Biosciences, San Jose, CA, USA). Briefly, 1 mL of PBS w/o Ca^2+ and Mg^2+ ions was added to 1 mL of ethanol and incubated with gentle stirring for 5 min. at room temperature. Next, the cells were centrifuged (3000 rpm/5 min.) and suspended in PBS w/o Ca^2+ and Mg^2+ ions with gentle stirring for 5 min. at room temperature. The cells were centrifuged once again (3000 rpm/5 min.) and the cell pellet was suspended in 500 μL of PI/RNase Staining Buffer. The incubation was carried out for 15 min. at room temperature. Finally, the intensity of the PI fluorescence was measured using FACS Calibur (BD Pharmingen^TM). The obtained data were analyzed using Cell Quest Pro Version 6.0. for the Macintosh operating system (BD Pharmingen^TM). The percentage of cells in the appropriate phases of the cycle was calculated based on all analyzed gated cells. A total of 10,000 events were measured per sample.

[6] = tested on: CCD 841 CoTr cells; assay: Flow cytometry (PI) cell cycle analysis of CCD 841 CoTr cells; type: cell-based, human; conditions: 25 μg/mL, 24 h
Method: as §3

[7] = CCD 841 CoTr colon normal cells, 24 h incubation

In the case of CCCCCc1cc(O)c2c(c1)OC(C)(CCC=C(C)C)C=C2 (centres unmarked) [CBC, cannabichromene], the “IC50 Values (MTT method)” value [1, 7] is reported as 75.29 µg/mL (≈ 239 µM), the “Stimulation of cell metabolism compared to the control (MTT)” value ([1]; CCD 841 CoTr, lowest concentration, 24 h) is reported as “over 4%” and the IC50 [1, 7] is reported as 75.2 µg/mL (≈ 239 µM). The IC50 [2] was 60.6 µg/mL (≈ 193 µM), the IC50 [3] was 151 µg/mL (≈ 480 µM) and the “Percentage of cells in early apoptosis” value [4] was 1.36 ± 0.18%. For the same compound, the “Percentage of cells in late apoptosis” value [4] was 6.84 ± 0.71 %, the “Percentage of cells in necrosis” value [4] was 1.18 ± 0.39% and the “Reduction in the number of viable cells compared to the control” value (shortened to “Reduction in the number of viable cells”) [4] was 7.13%. The viability at 25 µg/mL [4] was 88 ± 2.34%, the “Increase in the number of cells in the sub-G1 phase compared to the control” value (“Increase in the number of cells” for short) [5] was 1.19% and the “Percentage of cells in G1 phase” value [5] was 50.90 ± 0.73%. The “Percentage of cells in G2 phase” value [5] was 26.23 ± 0.39 %, the “Percentage of cells in S phase” value [5] was 16.71 ± 0.37% and the “Percentage of cells in sub-G1 phase” value [5] was 2.52 ± 0.10 %. The “Reduction in the number of cells in the G2 phase compared to the control” value [5] was 3.24%, the “Effect on cell cycle transitions (in words)” value (from here on “Effect”) [6] was “limited the transition of cells from the S to G2 phase” and the “Percentage of cells in G1 phase” value [6] was 32.31 ± 0.62%. For the same compound, the “Percentage of cells in G2 phase” value [6] was 22.78 ± 0.86%, the “Percentage of cells in S phase” value [6] was 23.38 ± 0.79 % and the “Percentage of cells in sub-G1 phase” value [6] was 15.17 ± 0.79 %. For the same compound, the “Reduction in the number of cells in the sub-G1 phase compared to the control” value [6] was 6.96%.
For CCCCCc1cc(O)cc(O)c1C/C=C(\C)CCC=C(C)C [abn-CBG, abnormal cannabigerol], the “Reduction of the metabolism of normal cells (MTT)” value ([1]; CCD 841 CoTr, 25 μg/mL, 24 h) was “over 81%”, the IC50 [1, 7] was 15.3 µg/mL (≈ 48.5 µM) and the IC50 [2] was 13.7 µg/mL (≈ 43.2 µM). For the same compound, the IC50 [3] was 14.1 µg/mL (≈ 44.6 µM), the “Cells in late apoptosis, more than in the control” value [4] was 68.83% and the “Cells in necrosis, more than in the control” value [4] was 19.03%. For the same compound, the “Percentage of cells in early apoptosis” value [4] was 3.65 ± 0.65 %, the “Percentage of cells in late apoptosis” value [4] was 71.86 ± 2.36 % and the “Percentage of cells in necrosis” value [4] was 19.75 ± 2.50 %. The “Reduction in the number of viable cells” value [4] was 90.42%, the viability at 25 µg/mL [4] was 4.74 ± 0.39% and the “Increase in the number of cells” value [5] was 80.59%. The “Percentage of cells in G1 phase” value [5] was 7.97 ± 0.35 %, the “Percentage of cells in G2 phase” value [5] was 3.62 ± 0.54 % and the “Percentage of cells in S phase” value [5] was 5.09 ± 0.50 %. For the same compound, the “Percentage of cells in sub-G1 phase” value [5] was 81.92 ± 1.80 %, the “Increase in the number of cells” value [6] was 53.97% and the “Percentage of cells in G1 phase” value [6] was 11.63 ± 0.83 %. The “Percentage of cells in G2 phase” value [6] was 3.46 ± 0.79 %, the “Percentage of cells in S phase” value [6] was 8.24 ± 0.56 % and the “Percentage of cells in sub-G1 phase” value [6] was 76.10 ± 2.21 %.
With CCCCCc1cc2c3c(c1)OC(C)(C)C1CCC(C)(CC31)O2 (centres unmarked) [CBT, cannabicitran] the IC50 [1, 7] was 55.5 µg/mL (≈ 177 µM), the IC50 [2] was 53.9 µg/mL (≈ 171 µM) and the IC50 [3] was 44.5 µg/mL (≈ 141 µM). For the same compound, the “Cells in late apoptosis, more than in the control” value [4] was 49.2%, the “Cells in necrosis, more than in the control” value [4] was 3.24% and the “Percentage of cells in early apoptosis” value [4] was 0.91 ± 0.16%. For the same compound, the “Percentage of cells in late apoptosis” value [4] was 52.23 ± 1.26 %, the “Percentage of cells in necrosis” value [4] was 3.96 ± 0.40 % and the “Reduction in the number of viable cells” value [4] was 52.25%. The viability at 25 µg/mL [4] was 42.9 ± 0.96%, the “Effect” value [5] was “limited the transition of cells from the S phase to the G2 phase” and the “Increase in the number of cells” value [5] was 17.93%. For the same compound, the “Percentage of cells in G1 phase” value [5] was 41.86 ± 0.64 %, the “Percentage of cells in G2 phase” value [5] was 17.90 ± 0.81 % and the “Percentage of cells in S phase” value [5] was 18.64 ± 0.81 %. The “Percentage of cells in sub-G1 phase” value [5] was 19.26 ± 0.67 %, the “Effect” value [6] was “caused the accumulation of cells in the S phase” and the “Increase in the number of cells” value [6] was 6.71%. The “Percentage of cells in G1 phase” value [6] was 28.81 ± 0.86 %, the “Percentage of cells in G2 phase” value [6] was 16.54 ± 0.72 % and the “Percentage of cells in S phase” value [6] was 22.23 ± 0.15 %. The “Percentage of cells in sub-G1 phase” value [6] was 28.84 ± 0.66 %.
